Measurements: patent US20060021075A1, “Group 1 CD1 transgenic mice and their uses” (priority 2004, published 2006)

Tested on: BM-DCs
Test: Flow cytometric analysis of CD1a, b, c expression on BM-DCs of hCD1Tg mice
Assay type: cell-based, mouse
Settings: BM-DCs from hCD1Tg mice cultured in GM-CSF and IL-4

Substance	Upregulation of CD1a, b, and c expression on BM-DCs
TNF-α	cannot be upregulated
IFN-γ: cytokine tested for upregulation of CD1 on BM-DCs	cannot be upregulated
